Reference: US8815503B2, “Compositions and methods for immunostimulatory RNA oligonucleotides” (Rheinische Friedrich-Wilhelms-Universitat Bonn, priority 2005, dated 2014)

test system: PBMC; test: 193 ssRNA 4mer-motif library screen: IL-12 (IL-12p40) production in PBMC of six donors, poly-L-Arg complexation, ELISA at 44 hours, IL-12 index and adjusted IL-12 index; assay type: cell-based, human; set-up: key to Adjusted IL-12 index Mean: IL-12 index (ratio to 9.2sense) minus donor mean, averaged over 6 donors; details: 193 ssRNA oligonucleotide library; data from six individual donors summarized; ascending order
Description: FIG. 9: PBMC of six different healthy donors were isolated and stimulated with poly-L-arginine complexed ssRNA oligonucleotides in duplicates. 44 hours after stimulation IL-12p40 production was assessed in supernatant via ELISA. For all tested ssRNA oligonucleotides (table 3), the mean values of the measured duplicates were normalized to the positive control ssRNA oligonucleotide 9.2sense (5′-AGCUUAACCUGUCCUUCAA (SEQ ID NO: 194)) by dividing the mean value of tested oligonucleotide by the mean value of 9.2sense (=IL-12 index of a given oligonucleotide). Next, all individual IL-12 indices were adjusted to the mean value of all IL-12 indices by subtracting the mean value of all IL-12 indices from the individual IL-12 index of a given oligonucleotide (=adjusted IL-12 index). Data from six individual donors were summarized and were assorted in ascending order displaying the corresponding SEM (for a complete listing including numerical data see table 4). FIG. 9A discloses SEQ ID NOS 460-509, respectively, in order of appearance. FIG. 9B discloses SEQ ID NOS 510-559, respectively, in order of appearance. FIG. 9C discloses SEQ ID NOS 560-609, respectively, in order of appearance. FIG. 9D discloses SEQ ID NOS 610-652, respectively, in order of appearance.
All 193 ssRNA oligonucleotides were tested on PBMC of six individual healthy donors using poly-L-Arg for complexation. At 44 hours after stimulation with RNA oligonucleotides, supernatants were collected and IL-12 production was measured by ELISA. Prior to statistical analysis the raw data were processed as follows: for each cell culture plate the mean IL-12 value of the experimental duplicates for each tested ssRNA oligonucleotide were normalized to the ssRNA oligonucleotide RNA9.2sense (5′-AGCUUAACCUGUCCUUCAA-3′ (SEQ ID NO: 194)). This standard RNA oligonucleotide was included as a positive control on all cell culture plates. Normalization was performed by calculating the ratio of IL-12 induced by the tested oligonucleotide and IL-12 induced by the standard oligonucleotide RNA9.2sense. Thus, for each tested oligonucleotide in an individual donor a mean ratio of IL-12 induction was obtained. In the following, this mean of the ratios is referred to as IL-12 index (one value of IL-12 index per donor). […] The corresponding IL-12 index of oligonucleotide ANP175 for donor 3 was calculated to be 1.90 (=1725 pg/ml divided by 908 pg/ml).
Next, the means of all IL-12 indices for every individual donor were calculated. Then the adjusted IL-12 indices were calculated as IL-12 index minus the mean of all IL-12 indices of one individual donor. […] The adjusted IL-12 index of ANP175 was calculated: 1.90 minus 0.44=1.46. The adjusted IL-12 indices from all six donors were summarized by calculating the means and the corresponding standard error of mean. The data are depicted in ascending order (FIG. 9A, B, C, D). The adjusted IL-12 indices of the top thirty ssRNA oligonucleotides of all six donors were compared using a two-tailed Student's t-test (FIG. 10). For most combinations tested, a significant difference was observed when the interval between the analyzed pairs was at least eight or nine places in the assortment.

Sequence	Adjusted IL-12 index Mean
AAAAAAACCAGAAAAAAAA (RNA, backbone not given here) [ANP-Oligo 063]	−0.57
AAAAAAAUCUGAAAAAAAA (RNA, backbone not given here) [ANP-Oligo 168]	0.45
AAAAAAAACGUAAAAAAAA (RNA, backbone not given here) [ANP-Oligo 022]	0.02
AAAAAAACAGUAAAAAAAA (RNA, backbone not given here) [ANP-Oligo 058]	0.22
AAAAAAACGCUAAAAAAAA (RNA, backbone not given here) [ANP-Oligo 079]	−0.09
AAAAAAAUAGGAAAAAAAA (RNA, backbone not given here) [ANP-Oligo 153]	0.42
AAAAAAAAGACAAAAAAAA (RNA, backbone not given here) [ANP-Oligo 026]	−0.6
AAAAAAAUCCCAAAAAAAA (RNA, backbone not given here) [ANP-Oligo 161]	−0.42
AAAAAAAACAAAAAAAAAA (RNA, backbone not given here) [ANP-Oligo 002]	−0.57
AAAAAAAGGGCAAAAAAAA (RNA, backbone not given here) [ANP-Oligo 128]	−0.64
AAAAAAAGGUCAAAAAAAA (RNA, backbone not given here) [ANP-Oligo 131]	0.12
AAAAAAAAUGUAAAAAAAA (RNA, backbone not given here) [ANP-Oligo 046]	0.97
AAAAAAAGUUCAAAAAAAA (RNA, backbone not given here) [ANP-Oligo 143]	0.56
AAAAAAAAUUAAAAAAAAA (RNA, backbone not given here) [ANP-Oligo 013]	−0.09
AAAAAAAAGUUAAAAAAAA (RNA, backbone not given here) [ANP-Oligo 037]	0.21
AAAAAAAUGUGAAAAAAAA (RNA, backbone not given here) [ANP-Oligo 180]	1.31
AAAAAAACUACAAAAAAAA (RNA, backbone not given here) [ANP-Oligo 086]	−0.46
AAAAAAACGGCAAAAAAAA (RNA, backbone not given here) [ANP-Oligo 080]	−0.65
AAAAAAAUUAUAAAAAAAA (RNA, backbone not given here) [ANP-Oligo 184]	0.56
AAAAAAAAUUCAAAAAAAA (RNA, backbone not given here) [ANP-Oligo 047]	−0.45

Sequence	Adjusted IL-12 index Mean
AAAAAAAAGAGAAAAAAAA (RNA, backbone not given here) [ANP-Oligo 027]	−0.62
AAAAAAAAGCGAAAAAAAA (RNA, backbone not given here) [ANP-Oligo 030]	−0.6
AAAAAAACGGUAAAAAAAA (RNA, backbone not given here) [ANP-Oligo 082]	0.29
AAAAAAACUCCAAAAAAAA (RNA, backbone not given here) [ANP-Oligo 089]	−0.42
AAAAAAACGUGAAAAAAAA (RNA, backbone not given here) [ANP-Oligo 084]	−0.2
AAAAAAACCAUAAAAAAAA (RNA, backbone not given here) [ANP-Oligo 064]	−0.38
AAAAAAAGGUGAAAAAAAA (RNA, backbone not given here) [ANP-Oligo 132]	0.47
AAAAAAAUGGGAAAAAAAA (RNA, backbone not given here) [ANP-Oligo 177]	−0.35
AAAAAAAACGCAAAAAAAA (RNA, backbone not given here) [ANP-Oligo 020]	−0.66
AAAAAAAACGGAAAAAAAA (RNA, backbone not given here) [ANP-Oligo 021]	−0.63
AAAAAAAAUGAAAAAAAAA (RNA, backbone not given here) [ANP-Oligo 012]	−0.23
AAAAAAAGGAGAAAAAAAA (RNA, backbone not given here) [ANP-Oligo 123]	−0.51
AAAAAAAACUGAAAAAAAA (RNA, backbone not given here) [ANP-Oligo 024]	−0.48
AAAAAAAACACAAAAAAAA (RNA, backbone not given here) [ANP-Oligo 014]	−0.64
AAAAAAAAUCGAAAAAAAA (RNA, backbone not given here) [ANP-Oligo 042]	−0.64
AAAAAAAGUUGAAAAAAAA (RNA, backbone not given here) [ANP-Oligo 144]	4.39
AAAAAAACCUUAAAAAAAA (RNA, backbone not given here) [ANP-Oligo 073]	−0.28
AAAAAAAUUGGAAAAAAAA (RNA, backbone not given here) [ANP-Oligo 189]	0.66
AAAAAAAUAGUAAAAAAAA (RNA, backbone not given here) [ANP-Oligo 154]	1.57
AAAAAAAACUUAAAAAAAA (RNA, backbone not given here) [ANP-Oligo 025]	−0.31

Sequence	Adjusted IL-12 index Mean
AAAAAAAUACGAAAAAAAA (RNA, backbone not given here) [ANP-Oligo 150]	−0.3
AAAAAAAACUAAAAAAAAA (RNA, backbone not given here) [ANP-Oligo 007]	−0.56
AAAAAAAACAGAAAAAAAA (RNA, backbone not given here) [ANP-Oligo 015]	−0.65
AAAAAAACCACAAAAAAAA (RNA, backbone not given here) [ANP-Oligo 062]	−0.66
AAAAAAAAGCAAAAAAAAA (RNA, backbone not given here) [ANP-Oligo 008]	−0.61
AAAAAAAGGCUAAAAAAAA (RNA, backbone not given here) [ANP-Oligo 127]	0.11
AAAAAAAGCGCAAAAAAAA (RNA, backbone not given here) [ANP-Oligo 116]	−0.58
AAAAAAAGUUUAAAAAAAA (RNA, backbone not given here) [ANP-Oligo 145]	1.32
AAAAAAACCGGAAAAAAAA (RNA, backbone not given here) [ANP-Oligo 069]	−0.64
AAAAAAAGCCGAAAAAAAA (RNA, backbone not given here) [ANP-Oligo 114]	−0.58
AAAAAAAGCCUAAAAAAAA (RNA, backbone not given here) [ANP-Oligo 115]	0.15
AAAAAAAACCGAAAAAAAA (RNA, backbone not given here) [ANP-Oligo 018]	−0.68
AAAAAAAUGGUAAAAAAAA (RNA, backbone not given here) [ANP-Oligo 178]	3.26
AAAAAAAUGGCAAAAAAAA (RNA, backbone not given here) [ANP-Oligo 176]	2.41
AAAAAAAGACCAAAAAAAA (RNA, backbone not given here) [ANP-Oligo 101]	−0.6
AAAAAAAAGGGAAAAAAAA (RNA, backbone not given here) [ANP-Oligo 033]	−0.59
AAAAAAAAGCUAAAAAAAA (RNA, backbone not given here) [ANP-Oligo 031]	−0.32
AAAAAAAUUAGAAAAAAAA (RNA, backbone not given here) [ANP-Oligo 183]	0.27

same assay, conditions: summarized from all six donors

Sequence	adjusted IL-12 index
AAAAAAAUAGUAAAAAAAA (RNA, backbone not given here) [ANP-Oligo 154]	1.57
AAAAAAAUGGUAAAAAAAA (RNA, backbone not given here) [ANP-Oligo 178]	3.26
